Experiments:
Assay in all cases: post-emergence herbicidal activity, greenhouse
Assay type in all cases: in vivo
Barnyardgrass = conditions: 4 WAT
In short: (§1)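 Plants grown from seed or perennial propagules in greenhouse soil pans were sprayed at two to three weeks with compound solution or suspension containing about 0.4% emulsifier, at the stated application rates. Injury relative to untreated controls was scored at approximately two and four weeks after treatment on a post-emergence activity index.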

Canada Thistle = conditions: Table I, 4 WAT
In short: as §1

Cocklebur = conditions: 4 WAT
In short: as §1

Crabgrass = conditions: Table II, 4 WAT
In short: as §1

Downy Brome = conditions: 4 WAT
In short: as §1

Hemp Sesbania = conditions: Table II, 4 WAT
In short: as §1

Johnsongrass = conditions: Table I, 4 WAT
In short: as §1

Lambsquarters = conditions: 4 WAT
In short: as §1

Morningglory = conditions: 4 WAT
In short: as §1

Panicum Spp = conditions: Table II, 4 WAT
In short: as §1

Quackgrass = conditions: Table I, 4 WAT
In short: as §1

Rice = conditions: Table II, 4 WAT
In short: as §1

Smartweed = conditions: 4 WAT
In short: as §1

Sorghum = conditions: Table II, 4 WAT
In short: as §1

Soybean = conditions: Table II, 4 WAT
In short: as §1

Sugar Beet = conditions: Table II, 4 WAT
In short: as §1

Velvetleaf = conditions: 4 WAT
In short: as §1

Wheat = conditions: Table II, 4 WAT
In short: as §1

Wild Buckwheat = conditions: Table II, 4 WAT
In short: as §1

Yellow Nutsedge = conditions: Table I, 4 WAT
In short: as §1

SMILES: CC(C)CCSSN(CC#N)CP(=O)(Oc1ccccc1)Oc1ccccc1 [V, Phosphonic acid, [[(cyanomethyl)[(3-methylbutyl)-dithio]amino]methyl]-, diphenyl ester]
- post-emergence herbicidal activity index (Barnyardgrass; Table I, 5.6 kg/h): 2 (50-74% control)
- post-emergence herbicidal activity index (Barnyardgrass; Table I, 11.2 kg/h): 3 (75-99% control)
- post-emergence herbicidal activity index (Barnyardgrass; Table II, 1.12 kg/h): 1 (25-49% control)
- post-emergence herbicidal activity index (Barnyardgrass; Table II, 5.6 kg/h): 3 (75-99% control)
- post-emergence herbicidal activity index (Canada Thistle; 5.6 kg/h): 2 (50-74% control)
- post-emergence herbicidal activity index (Canada Thistle; 11.2 kg/h): 1 (25-49% control)
- post-emergence herbicidal activity index (Cocklebur; Table I, 5.6 kg/h): 2 (50-74% control)
- post-emergence herbicidal activity index (Cocklebur; Table I, 11.2 kg/h): 3 (75-99% control)
- post-emergence herbicidal activity index (Cocklebur; Table II, 1.12 kg/h): 1 (25-49% control)
- post-emergence herbicidal activity index (Cocklebur; Table II, 5.6 kg/h): 3 (75-99% control)
- post-emergence herbicidal activity index (Crabgrass; 1.12 kg/h): 1 (25-49% control)
- post-emergence herbicidal activity index (Crabgrass; 5.6 kg/h): 3 (75-99% control)
- post-emergence herbicidal activity index (Downy Brome; Table I, 5.6 kg/h): 2 (50-74% control)
- post-emergence herbicidal activity index (Downy Brome; Table I, 11.2 kg/h): 2 (50-74% control)
- post-emergence herbicidal activity index (Downy Brome; Table II, 1.12 kg/h): 2 (50-74% control)
- post-emergence herbicidal activity index (Downy Brome; Table II, 5.6 kg/h): 2 (50-74% control)
- post-emergence herbicidal activity index (Hemp Sesbania; 1.12 kg/h): 0 (0-24% control)
- post-emergence herbicidal activity index (Hemp Sesbania; 5.6 kg/h): 1 (25-49% control)
- post-emergence herbicidal activity index (Johnsongrass; 5.6 kg/h): 1 (25-49% control)
- post-emergence herbicidal activity index (Johnsongrass; 11.2 kg/h): 3 (75-99% control)
- post-emergence herbicidal activity index (Lambsquarters; Table I, 5.6 kg/h): 4 (100% control)
- post-emergence herbicidal activity index (Lambsquarters; Table I, 11.2 kg/h): 3 (75-99% control)
- post-emergence herbicidal activity index (Lambsquarters; Table II, 1.12 kg/h): 1 (25-49% control)
- post-emergence herbicidal activity index (Lambsquarters; Table II, 5.6 kg/h): 3 (75-99% control)
- post-emergence herbicidal activity index (Morningglory; Table I, 5.6 kg/h): 2 (50-74% control)
- post-emergence herbicidal activity index (Morningglory; Table I, 11.2 kg/h): 2 (50-74% control)
- post-emergence herbicidal activity index (Morningglory; Table II, 1.12 kg/h): 1 (25-49% control)
- post-emergence herbicidal activity index (Morningglory; Table II, 5.6 kg/h): 2 (50-74% control)
- post-emergence herbicidal activity index (Panicum Spp; 1.12 kg/h): 0 (0-24% control)
- post-emergence herbicidal activity index (Panicum Spp; 5.6 kg/h): 1 (25-49% control)
- post-emergence herbicidal activity index (Quackgrass; 5.6 kg/h): 1 (25-49% control)
- post-emergence herbicidal activity index (Quackgrass; 11.2 kg/h): 2 (50-74% control)
- post-emergence herbicidal activity index (Rice; 1.12 kg/h): 0 (0-24% control)
- post-emergence herbicidal activity index (Rice; 5.6 kg/h): 1 (25-49% control)
- post-emergence herbicidal activity index (Smartweed; Table I, 5.6 kg/h): 1 (25-49% control)
- post-emergence herbicidal activity index (Smartweed; Table I, 11.2 kg/h): 3 (75-99% control)
- post-emergence herbicidal activity index (Smartweed; Table II, 1.12 kg/h): 0 (0-24% control)
- post-emergence herbicidal activity index (Smartweed; Table II, 5.6 kg/h): 1 (25-49% control)
- post-emergence herbicidal activity index (Sorghum; 1.12 kg/h): 2 (50-74% control)
- post-emergence herbicidal activity index (Sorghum; 5.6 kg/h): 3 (75-99% control)
- post-emergence herbicidal activity index (Soybean; 1.12 kg/h): 1 (25-49% control)
- post-emergence herbicidal activity index (Soybean; 5.6 kg/h): 2 (50-74% control)
- post-emergence herbicidal activity index (Sugar Beet; 1.12 kg/h): 1 (25-49% control)
- post-emergence herbicidal activity index (Sugar Beet; 5.6 kg/h): 1 (25-49% control)
- post-emergence herbicidal activity index (Velvetleaf; Table I, 5.6 kg/h): 1 (25-49% control)
- post-emergence herbicidal activity index (Velvetleaf; Table I, 11.2 kg/h): 0 (0-24% control)
- post-emergence herbicidal activity index (Velvetleaf; Table II, 1.12 kg/h): 0 (0-24% control)
- post-emergence herbicidal activity index (Velvetleaf; Table II, 5.6 kg/h): 2 (50-74% control)
- post-emergence herbicidal activity index (Wheat; 1.12 kg/h): 0 (0-24% control)
- post-emergence herbicidal activity index (Wheat; 5.6 kg/h): 1 (25-49% control)
- post-emergence herbicidal activity index (Wild Buckwheat; 1.12 kg/h): 0 (0-24% control)
- post-emergence herbicidal activity index (Wild Buckwheat; 5.6 kg/h): 1 (25-49% control)
- post-emergence herbicidal activity index (Yellow Nutsedge; 5.6 kg/h): 2 (50-74% control)
- post-emergence herbicidal activity index (Yellow Nutsedge; 11.2 kg/h): 2 (50-74% control)

SMILES: N#CCN(CP(=O)(Oc1ccccc1)Oc1ccccc1)SCl [I]
- post-emergence herbicidal activity index (Barnyardgrass; Table I, 5.6 kg/h): 1 (25-49% control)
- post-emergence herbicidal activity index (Barnyardgrass; Table I, 11.2 kg/h): 2 (50-74% control)
- post-emergence herbicidal activity index (Barnyardgrass; Table II, 0.28 kg/h): 0 (0-24% control)
- post-emergence herbicidal activity index (Barnyardgrass; Table II, 1.12 kg/h): 1 (25-49% control)
- post-emergence herbicidal activity index (Barnyardgrass; Table II, 5.6 kg/h): 2 (50-74% control)
- post-emergence herbicidal activity index (Canada Thistle; 5.6 kg/h): 1 (25-49% control)
- post-emergence herbicidal activity index (Canada Thistle; 11.2 kg/h): 2 (50-74% control)
- post-emergence herbicidal activity index (Cocklebur; Table I, 5.6 kg/h): 3 (75-99% control)
- post-emergence herbicidal activity index (Cocklebur; Table I, 11.2 kg/h): 2 (50-74% control)
- post-emergence herbicidal activity index (Cocklebur; Table II, 0.28 kg/h): 2 (50-74% control)
- post-emergence herbicidal activity index (Cocklebur; Table II, 1.12 kg/h): 2 (50-74% control)
- post-emergence herbicidal activity index (Cocklebur; Table II, 5.6 kg/h): 2 (50-74% control)
- post-emergence herbicidal activity index (Crabgrass; 0.28 kg/h): 0 (0-24% control)
- post-emergence herbicidal activity index (Crabgrass; 1.12 kg/h): 2 (50-74% control)
- post-emergence herbicidal activity index (Downy Brome; Table I, 5.6 kg/h): 0 (0-24% control)
- post-emergence herbicidal activity index (Downy Brome; Table I, 11.2 kg/h): 2 (50-74% control)
- post-emergence herbicidal activity index (Downy Brome; Table II, 0.28 kg/h): 1 (25-49% control)
- post-emergence herbicidal activity index (Downy Brome; Table II, 1.12 kg/h): 0 (0-24% control)
- post-emergence herbicidal activity index (Downy Brome; Table II, 5.6 kg/h): 1 (25-49% control)
- post-emergence herbicidal activity index (Hemp Sesbania; 0.28 kg/h): 0 (0-24% control)
- post-emergence herbicidal activity index (Hemp Sesbania; 1.12 kg/h): 0 (0-24% control)
- post-emergence herbicidal activity index (Hemp Sesbania; 5.6 kg/h): 2 (50-74% control)
- post-emergence herbicidal activity index (Johnsongrass; 5.6 kg/h): 1 (25-49% control)
- post-emergence herbicidal activity index (Johnsongrass; 11.2 kg/h): 1 (25-49% control)
- post-emergence herbicidal activity index (Lambsquarters; Table I, 5.6 kg/h): 4 (100% control)
- post-emergence herbicidal activity index (Lambsquarters; Table I, 11.2 kg/h): 3 (75-99% control)
- post-emergence herbicidal activity index (Lambsquarters; Table II, 0.28 kg/h): 2 (50-74% control)
- post-emergence herbicidal activity index (Lambsquarters; Table II, 1.12 kg/h): 4 (100% control)
- post-emergence herbicidal activity index (Lambsquarters; Table II, 5.6 kg/h): 4 (100% control)
- post-emergence herbicidal activity index (Morningglory; Table I, 5.6 kg/h): 2 (50-74% control)
- post-emergence herbicidal activity index (Morningglory; Table I, 11.2 kg/h): 2 (50-74% control)
- post-emergence herbicidal activity index (Morningglory; Table II, 0.28 kg/h): 0 (0-24% control)
- post-emergence herbicidal activity index (Morningglory; Table II, 1.12 kg/h): 1 (25-49% control)
- post-emergence herbicidal activity index (Morningglory; Table II, 5.6 kg/h): 2 (50-74% control)
- post-emergence herbicidal activity index (Panicum Spp; 0.28 kg/h): 0 (0-24% control)
- post-emergence herbicidal activity index (Panicum Spp; 1.12 kg/h): 0 (0-24% control)
- post-emergence herbicidal activity index (Panicum Spp; 5.6 kg/h): 1 (25-49% control)
- post-emergence herbicidal activity index (Quackgrass; 5.6 kg/h): 0 (0-24% control)
- post-emergence herbicidal activity index (Quackgrass; 11.2 kg/h): 1 (25-49% control)
- post-emergence herbicidal activity index (Rice; 0.28 kg/h): 0 (0-24% control)
- post-emergence herbicidal activity index (Rice; 1.12 kg/h): 0 (0-24% control)
- post-emergence herbicidal activity index (Rice; 5.6 kg/h): 1 (25-49% control)
- post-emergence herbicidal activity index (Smartweed; Table I, 5.6 kg/h): 0 (0-24% control)
- post-emergence herbicidal activity index (Smartweed; Table I, 11.2 kg/h): 2 (50-74% control)
- post-emergence herbicidal activity index (Smartweed; Table II, 0.28 kg/h): 1 (25-49% control)
- post-emergence herbicidal activity index (Smartweed; Table II, 1.12 kg/h): 0 (0-24% control)
- post-emergence herbicidal activity index (Sorghum; 0.28 kg/h): 1 (25-49% control)
- post-emergence herbicidal activity index (Sorghum; 1.12 kg/h): 2 (50-74% control)
- post-emergence herbicidal activity index (Sorghum; 5.6 kg/h): 3 (75-99% control)
- post-emergence herbicidal activity index (Soybean; 0.28 kg/h): 1 (25-49% control)
- post-emergence herbicidal activity index (Soybean; 1.12 kg/h): 1 (25-49% control)
- post-emergence herbicidal activity index (Soybean; 5.6 kg/h): 2 (50-74% control)
- post-emergence herbicidal activity index (Sugar Beet; 0.28 kg/h): 0 (0-24% control)
- post-emergence herbicidal activity index (Sugar Beet; 1.12 kg/h): 0 (0-24% control)
- post-emergence herbicidal activity index (Sugar Beet; 5.6 kg/h): 0 (0-24% control)
- post-emergence herbicidal activity index (Velvetleaf; Table I, 5.6 kg/h): 2 (50-74% control)
- post-emergence herbicidal activity index (Velvetleaf; Table I, 11.2 kg/h): 2 (50-74% control)
- post-emergence herbicidal activity index (Velvetleaf; Table II, 0.28 kg/h): 1 (25-49% control)
- post-emergence herbicidal activity index (Velvetleaf; Table II, 1.12 kg/h): 1 (25-49% control)
- post-emergence herbicidal activity index (Velvetleaf; Table II, 5.6 kg/h): 2 (50-74% control)
- post-emergence herbicidal activity index (Wheat; 0.28 kg/h): 0 (0-24% control)
- post-emergence herbicidal activity index (Wheat; 1.12 kg/h): 1 (25-49% control)
- post-emergence herbicidal activity index (Wheat; 5.6 kg/h): 1 (25-49% control)
- post-emergence herbicidal activity index (Wild Buckwheat; 0.28 kg/h): 0 (0-24% control)
- post-emergence herbicidal activity index (Wild Buckwheat; 1.12 kg/h): 0 (0-24% control)
- post-emergence herbicidal activity index (Wild Buckwheat; 5.6 kg/h): 2 (50-74% control)
- post-emergence herbicidal activity index (Yellow Nutsedge; 5.6 kg/h): 2 (50-74% control)
- post-emergence herbicidal activity index (Yellow Nutsedge; 11.2 kg/h): 2 (50-74% control)

— US4508663A, “Process for preparing thiosulfenamide derivatives of N-phosphonomethylglycinonitriles” (Monsanto Company, priority 1983, dated 1985)
